Data: US8138360B2, “Isotopically-labeled benzofuran compounds as imaging agents for amyloidogenic proteins” (University of Pittsburgh—of the Commonwealth System of …, priority 2005, dated 2012)

Assays:
synthetic Aβ(1-40) = target: T1, synthetic Aβ(1-40) (Homo sapiens, UniProt P05067); test: Competition of [3H]BTA-1 binding from synthetic Aβ(1-40); details: for Ki: inhibition constant for competition of [3H]BTA-1 binding from synthetic Aβ(1-40), phosphate-buffered saline pH 7.4
T1 construct: host or cells: chemically synthesised peptide
Description: (§1) The characteristics of benzofuran derivative binding were analyzed using synthetic Aβ(1-40) and 2-(4′-[^3H]methylamino-phenyl)-benzothiazole ([^3H]BTA-1) in phosphate-buffered saline (pH 7.4) as previously described. Klunk et al., Life Sci. 69:1471 (2001); Mathis et al., Bioorg. Med. Chem. Lett., 12:295 (2002).
as §1, with “7.4),” for “7.4)”, “(2002). The table below lists the inhibition constants (Ki) of the four compounds shown for competition of [^3H]BTA-1 binding from synthetic Aβ(1-40).” for “(2002).”

[1] = Baboon brain entry study (PET); assay type: in vivo; details: 40 kg baboon, 8 mCi intravenously, PET imaging over 2 h post injection
Description: A 40 kg baboon was anesthetized, immobilized, and placed on a ventilator. The baboon was positioned in a PET scanner to image the brain, and a transmission scan was performed to correct for attenuation. The baboon was injected intravenously with a solution containing 8 mCi of 5-Methoxy-2-(4′-fluorophenyl)benzofuran, and the brain was imaged in a series of increasing data collection time bins over 2 h post injection. Following data acquisition, the images were reconstructed and regions of interest were drawn. Decay and […] corrected time-activity curves (TAC) were generated for each of the regions to determine the quantitative time course of radioactivity in each brain region.

T1 sequence (P05067 672-711): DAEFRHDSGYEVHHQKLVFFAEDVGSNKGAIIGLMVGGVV

For Oc1ccc2oc(-c3ccc(F)cc3)cc2c1, the Ki (synthetic Aβ(1-40)) was 27.7 nM.

For Oc1ccc2cc(-c3ccc(F)cc3)oc2c1, the Ki (synthetic Aβ(1-40)) was 96 nM.

Work on Nc1ccc2oc(-c3ccc(F)cc3)cc2c1 yielded a Ki (synthetic Aβ(1-40)) of 28 nM.

Compound COc1ccc2oc(-c3ccc(F)cc3)cc2c1 [drawing 23] has a Ki (synthetic Aβ(1-40)) of 3.7 nM.

Oc1ccc2oc(-c3ccc(OCCCF)cc3)cc2c1 gave a Ki (synthetic Aβ(1-40)) of 1.2 nM.

Work on CNc1ccc2oc(-c3ccc(F)cc3)cc2c1 yielded a Ki (synthetic Aβ(1-40)) of 2.8 nM.

Compound CN(C)c1ccc2oc(-c3ccc(F)cc3)cc2c1 has a Ki (synthetic Aβ(1-40)) of 2 nM.

With COc1ccc2oc(-c3ccc(F)cc3)cc2c1 [5-Methoxy-2-(4′-fluorophenyl)benzofuran] the “affinity of the ligand in vitro for aggregated amyloid” value (synthetic Aβ(1-40); in vitro, in words) was “relatively high affinity”, the “brain penetration of the radiotracer (time-activity curves)” value [1] was “excellent brain penetration” and the “clearance of radioactivity from normal baboon brain (time-activity curves)” value [1] was “rapid clearance”.

For COc1ccc2cc(-c3ccc(F)cc3)oc2c1, the Ki (synthetic Aβ(1-40)) was 3.9 nM.
